This is an account of results in US9610258B2, “Methods of stabilizing the extracellular matrix and compositions therefor” (priority 2011, dated 2017).

Where “and” joins values, the source holds several entries; their conditions need not be identical. Equal entries are not always repeated. Some results are limits rather than exact numbers.

Data set [1] can be described thus: 12-month aging of topical cream, isothiocyanate concentration by HPLC. It is filed as physicochemical. Conditions: Table 11 cream; for isothiocyanate concentration in cream, 4 months: aged 4 months; for isothiocyanate concentration in cream, 8 months: aged 8 months; for isothiocyanate concentration in cream, 12 months: aged 12 months; for isothiocyanate concentration in cream, Original: time 0. As to the method:
To determine the effects of aging of the topical cream formulations on the potency of the included bioactives, a study was performed as described in Table 12. Shown is a 12-month aging of the orthomolecular transdermal formulation as described in Table 11. Bio-encapsulation of the isothiocyanates, such as cyclodextrin R-sulforaphane, is not commonly available, and can suffer instability depending on the cream base used. Since topical formulations are applied to the skin, consideration of noxious volatile sulfur emissions and dermal irritation, especially from broccoli, wasabi, and mustard extracts, limit their amount and source. Table 12 illustrates that stabilization of orthomolecular ingredients such as isothiocyanates can be accomplished in a topical formulation.

For another data set, the system named is mice. The settings on record: mouse, in vivo; cited from earlier work.
In data set [2] the test system is oxazolone-induced ear edema in BALB/c mice. Put plainly: Oxazolone-induced murine ear edema, second formalized study. It is filed as in vivo. Conditions: for reduction / inhibition of oxazolone-induced ear edema: as stated in running text per treatment group; for Change in Ear Weight, Mean: group mean, 8 mice, acetone vehicle 74.6; for Left Ear weight / Right Ear weight / ΔWt., change in mouse ear weight: individual mice, 24 h after oxazolone challenge; for % Inhibition of change in ear weight: vs acetone vehicle group. On the procedure:
The present example assesses the anti-inflammatory activity of a topically applied formulation in accordance with one aspect of the present invention in a prophylactic and therapeutic model of ear edema in BALB/c mice. […] Louis, Mo., USA) to 20 mL acetone (Acros Organics, Cat. 42324-0010, lot B4522107, Thermo Fisher Scientific, Princeton, N.J., USA). The mixture was gently heated until a bright yellow color. 52 BALB/c mice (Harlan Sprague-Dawley, Inc., Indianapolis, Ind., USA, male, 6-7 weeks old) were received, individually examined and housed in six cages of eight mice each and one cage containing four mice. No clinical signs of disease or distress were observed. The mice were placed in quarantine with daily inspections. […] The mixture was gently heated until a bright yellow color. […] This equated to 0.336 mg of cream per ear. 0.6 mg betamethasone-21-valerate (Sigma Chem., Cat. […] PZ0008, lot 020M47044) was suspended in […] dH2O (1 mg/mL) for Group 4. […] Twenty-four hours after oxazolone challenge, the mice were euthanized, and the ears were removed and weighed.

The conditions of data set [3]: in topical formulations; cited from earlier work.
The next data set deals with breast cancer. The settings on record: women living at least one year after breast cancer diagnosis; cited from earlier work.
A further data set deals with ear edema. The settings on record: cited from earlier work.

Regarding `C[S+]([O-])CCCCCCN=C=S` (centres unmarked) [6 MITC, 6-(methylsulfinyl)hexyl isothiocyanate], in data set [1], the “isothiocyanate concentration in cream, 4 months” value is 0.341 Mg/gm; the “isothiocyanate concentration in cream, 8 months” value was 0.614 Mg/gm; the “isothiocyanate concentration in cream, 12 months” value worked out at 0.571 Mg/gm; the “isothiocyanate concentration in cream, Original” value is 0.123 Mg/gm.
On to `COc1cc(/C=C/C(=O)CC(=O)/C=C/c2ccc(O)c(OC)c2)ccc1O` [Curcumin], for which, in the data set with mice, the “Oral LD50” value is reported as above 2 g/kg body weight.
With `C[S@+]([O-])CCCCN=C=S` [L-Sulforaphane], in data set [1], the “isothiocyanate concentration in cream, 4 months” value came out at 0.358 Mg/gm; the “isothiocyanate concentration in cream, 8 months” value is on record as 1.105 Mg/gm; the “isothiocyanate concentration in cream, 12 months” value is listed as 1.841 Mg/gm; the “isothiocyanate concentration in cream, Original” value is 0.606 Mg/gm.
Turning to `Cc1ccc(-c2cc(C(F)(F)F)nn2-c2ccc(S(N)(=O)=O)cc2)cc1` [Oral Celecoxib, celecoxib], in data set [2], the “reduction / inhibition of oxazolone-induced ear edema” value came out at 37%; the “Change in Ear Weight, Mean” value is 46.7 mg; the “Left Ear weight” value is 27.52 mg and 25.00 mg and 22.00 mg and 27.84 mg and 30.30 mg and 26.29 mg and 23.89 mg and 23.84 mg; the “Right Ear weight” value was 79.55 mg and 68.55 mg (2×) and 72.46 mg and 81.00 mg and 75.32 mg and 72.39 mg and 62.48 mg. Moreover, in data set [2], the “ΔWt., change in mouse ear weight” value is 52.03 mg and 43.55 mg and 46.55 mg and 44.62 mg and 50.70 mg and 49.03 mg and 48.50 mg and 38.64 mg; the “% Inhibition of change in ear weight” value is listed as 37%.
With `C[S+]([O-])CCCCN=C=S` (centres unmarked) [Sulforaphane], in data set [3], the “time to decline to a zero level” value is listed as 30 days.
In the case of `C[S@@+]([O-])C=CCCN=C=S` [Sulforaphene, 4-isothiocyanato-(1R)-(methylsulphinyl)-1-(E)-butene], in data set [1], the “isothiocyanate concentration in cream, 4 months” value is 1.729 Mg/gm; the “isothiocyanate concentration in cream, 8 months” value came out at 0.308 Mg/gm; the “isothiocyanate concentration in cream, 12 months” value amounted to 0.233 Mg/gm; the “isothiocyanate concentration in cream, Original” value came out at 0.551 Mg/gm.
In the case of `CC(=O)Oc1ccccc1C(=O)O` [aspirin], the “decrease in distant recurrence and breast cancer death” value in the data set on breast cancer is listed as around 50%.
Regarding `COc1ccc2c(c1)c(CC(=O)O)c(C)n2C(=O)c1ccc(Cl)cc1` [indomethacin], the “inhibition / reduction of edema reported by studies of individual topical components” value in the data set on ear edema (research grade trans-resveratrol, indomethacin 0.5 mg/ear) is recorded as 45%.
`Oc1ccc(/C=C/c2cc(O)cc(O)c2)cc1` [trans-resveratrol, 3,5,4′-trihydroxy-trans-stilbene]: the inhibition of edema in the data set on ear edema (commercially-purified, at similar concentration to that of the topical formulation) was 35%.
On to “betamethasone-21-valerate [Topical Betamethasone]”, for which, in data set [2], the “reduction / inhibition of oxazolone-induced ear edema” value worked out at 69%; the “Change in Ear Weight, Mean” value stood at 23.7 mg; the “Left Ear weight” value was 22.10 mg and 23.20 mg and 24.56 mg and 20.44 mg and 21.26 mg and 22.60 mg (2×) and 25.74 mg; the “Right Ear weight” value is 48.00 mg and 45.52 mg and 48.66 mg and 47.03 mg and 41.34 mg and 45.70 mg and 49.51 mg and 46.30 mg. In data set [2], the “ΔWt., change in mouse ear weight” value was 25.90 mg and 22.32 mg and 24.10 mg and 26.59 mg and 20.08 mg and 23.10 mg and 26.91 mg and 20.56 mg; the “% Inhibition of change in ear weight” value stood at 68%.
